{
  "source": "patent US20090143279A1",
  "about": "(priority 2007, published 2009)",
  "note": "Where a SMILES comes first, the peptide text is derived from it.",
  "data": [
    {"tested_on": "mitochondrial membrane potential", "assay_type": "cell-based, mouse", "conditions": "composite Z-score vs DMSO; Conc 10.62 μM", "values": [
      {"smiles": "CC(=O)[C@@]1(O)CC[C@H]2[C@@H]3C[C@H](C)C4=CC(=O)C=C[C@]4(C)[C@@]3(F)[C@@H](O)C[C@@]21C", "note": "[fluorometholone]", "ΔΨm": "−0.299"}
    ]},
    {"tested_on": "mitochondrial membrane potential", "assay_type": "cell-based, mouse", "conditions": "composite Z-score vs DMSO; Conc 20 μM", "values": [
      {"smiles": "CC(C)C[C@H](NC(=O)CN)C(=O)N[C@@H](Cc1ccccc1)C(=O)O", "note": "[glycylleucylphenylalanine] (H-Gly-Leu-Phe-OH)", "ΔΨm": "−0.774"},
      {"smiles": "C[C@]12CCC3C(CC[C@H]4C[C@H](O)CC[C@]34C)C1CC[C@@H]2O", "note": "(stereo partly drawn) [epiandrostanediol]", "ΔΨm": "−0.156"},
      {"smiles": "CC1(C)O[C@@H]2C[C@H]3[C@@H]4CCC5=CC(=O)CC[C@]5(C)[C@@]4(F)[C@@H](O)C[C@]3(C)[C@]2(C(=O)CCl)O1", "note": "[halcinonide]", "ΔΨm": 0.570},
      {"smiles": "COc1cc2c(c(OC)c1OC)-c1ccc(=O)c(O)cc1[C@@H](NC(C)=O)CC2", "note": "[colchiceine]", "ΔΨm": "−0.812"}
    ]},
    {"tested_on": "mitochondrial membrane potential", "assay_type": "cell-based, mouse", "conditions": "composite Z-score vs mock-treated (DMSO) wells; Conc 20 μM", "values": [
      {"smiles": "COC(=O)c1cccc2cc(OC)c(OC)c(OC)c2c1=O", "ΔΨm": "−0.254"}
    ]},
    {"tested_on": "reactive oxygen species", "assay_type": "cell-based, mouse", "conditions": "composite Z-score vs DMSO; Conc 10.62 μM", "values": [
      {"smiles": "CC(=O)[C@@]1(O)CC[C@H]2[C@@H]3C[C@H](C)C4=CC(=O)C=C[C@]4(C)[C@@]3(F)[C@@H](O)C[C@@]21C", "note": "[fluorometholone]", "ROS": 2.141}
    ]},
    {"tested_on": "reactive oxygen species", "assay_type": "cell-based, mouse", "conditions": "composite Z-score vs DMSO; Conc 20 μM", "values": [
      {"smiles": "CC(C)C[C@H](NC(=O)CN)C(=O)N[C@@H](Cc1ccccc1)C(=O)O", "note": "[glycylleucylphenylalanine] (H-Gly-Leu-Phe-OH)", "ROS": 0.973},
      {"smiles": "C[C@]12CCC3C(CC[C@H]4C[C@H](O)CC[C@]34C)C1CC[C@@H]2O", "note": "(stereo partly drawn) [epiandrostanediol]", "ROS": 0.113},
      {"smiles": "CC1(C)O[C@@H]2C[C@H]3[C@@H]4CCC5=CC(=O)CC[C@]5(C)[C@@]4(F)[C@@H](O)C[C@]3(C)[C@]2(C(=O)CCl)O1", "note": "[halcinonide]", "ROS": 0.624},
      {"smiles": "COc1cc2c(c(OC)c1OC)-c1ccc(=O)c(O)cc1[C@@H](NC(C)=O)CC2", "note": "[colchiceine]", "ROS": 0.469}
    ]},
    {"tested_on": "reactive oxygen species", "assay_type": "cell-based, mouse", "conditions": "composite Z-score vs mock-treated (DMSO) wells; Conc 20 μM", "values": [
      {"smiles": "COC(=O)c1cccc2cc(OC)c(OC)c(OC)c2c1=O", "ROS": 0.800}
    ]},
    {"tested_on": "OXPHOS gene expression", "assay_type": "cell-based, mouse", "conditions": "composite Z-score vs DMSO; Conc 10.62 μM", "values": [
      {"smiles": "CC(=O)[C@@]1(O)CC[C@H]2[C@@H]3C[C@H](C)C4=CC(=O)C=C[C@]4(C)[C@@]3(F)[C@@H](O)C[C@@]21C", "note": "[fluorometholone]", "GE-HTS": 0.446}
    ]},
    {"tested_on": "OXPHOS gene expression", "assay_type": "cell-based, mouse", "conditions": "composite Z-score vs DMSO; Conc 20 μM", "values": [
      {"smiles": "CC(C)C[C@H](NC(=O)CN)C(=O)N[C@@H](Cc1ccccc1)C(=O)O", "note": "[glycylleucylphenylalanine] (H-Gly-Leu-Phe-OH)", "GE-HTS": "−0.095"},
      {"smiles": "C[C@]12CCC3C(CC[C@H]4C[C@H](O)CC[C@]34C)C1CC[C@@H]2O", "note": "(stereo partly drawn) [epiandrostanediol]", "GE-HTS": "−0.069"},
      {"smiles": "CC1(C)O[C@@H]2C[C@H]3[C@@H]4CCC5=CC(=O)CC[C@]5(C)[C@@]4(F)[C@@H](O)C[C@]3(C)[C@]2(C(=O)CCl)O1", "note": "[halcinonide]", "GE-HTS": 0.492},
      {"smiles": "COc1cc2c(c(OC)c1OC)-c1ccc(=O)c(O)cc1[C@@H](NC(C)=O)CC2", "note": "[colchiceine]", "GE-HTS": 1.832}
    ]},
    {"tested_on": "OXPHOS gene expression", "assay_type": "cell-based, mouse", "conditions": "composite Z-score vs mock-treated (DMSO) wells; Conc 20 μM", "values": [
      {"smiles": "COC(=O)c1cccc2cc(OC)c(OC)c(OC)c2c1=O", "GE-HTS": 0.231}
    ]},
    {"tested_on": "nuOXPHOS transcripts", "assay_type": "cell-based, mouse", "conditions": "composite Z-score vs DMSO; Conc 10.62 μM", "values": [
      {"smiles": "CC(=O)[C@@]1(O)CC[C@H]2[C@@H]3C[C@H](C)C4=CC(=O)C=C[C@]4(C)[C@@]3(F)[C@@H](O)C[C@@]21C", "note": "[fluorometholone]", "nucOX": 0.038}
    ]},
    {"tested_on": "nuOXPHOS transcripts", "assay_type": "cell-based, mouse", "conditions": "composite Z-score vs DMSO; Conc 20 μM", "values": [
      {"smiles": "CC(C)C[C@H](NC(=O)CN)C(=O)N[C@@H](Cc1ccccc1)C(=O)O", "note": "[glycylleucylphenylalanine] (H-Gly-Leu-Phe-OH)", "nucOX": 0.033},
      {"smiles": "C[C@]12CCC3C(CC[C@H]4C[C@H](O)CC[C@]34C)C1CC[C@@H]2O", "note": "(stereo partly drawn) [epiandrostanediol]", "nucOX": "−0.203"},
      {"smiles": "CC1(C)O[C@@H]2C[C@H]3[C@@H]4CCC5=CC(=O)CC[C@]5(C)[C@@]4(F)[C@@H](O)C[C@]3(C)[C@]2(C(=O)CCl)O1", "note": "[halcinonide]", "nucOX": 0.284},
      {"smiles": "COc1cc2c(c(OC)c1OC)-c1ccc(=O)c(O)cc1[C@@H](NC(C)=O)CC2", "note": "[colchiceine]", "nucOX": 1.935}
    ]},
    {"tested_on": "nuOXPHOS transcripts", "assay_type": "cell-based, mouse", "conditions": "composite Z-score vs mock-treated (DMSO) wells; Conc 20 μM", "values": [
      {"smiles": "COC(=O)c1cccc2cc(OC)c(OC)c(OC)c2c1=O", "nucOX": 0.287}
    ]},
    {"tested_on": "mtOXPHOS transcripts", "assay_type": "cell-based, mouse", "conditions": "composite Z-score vs DMSO; Conc 10.62 μM", "values": [
      {"smiles": "CC(=O)[C@@]1(O)CC[C@H]2[C@@H]3C[C@H](C)C4=CC(=O)C=C[C@]4(C)[C@@]3(F)[C@@H](O)C[C@@]21C", "note": "[fluorometholone]", "mitoOX": 1.187}
    ]},
    {"tested_on": "mtOXPHOS transcripts", "assay_type": "cell-based, mouse", "conditions": "composite Z-score vs DMSO; Conc 20 μM", "values": [
      {"smiles": "CC(C)C[C@H](NC(=O)CN)C(=O)N[C@@H](Cc1ccccc1)C(=O)O", "note": "[glycylleucylphenylalanine] (H-Gly-Leu-Phe-OH)", "mitoOX": "−0.322"},
      {"smiles": "C[C@]12CCC3C(CC[C@H]4C[C@H](O)CC[C@]34C)C1CC[C@@H]2O", "note": "(stereo partly drawn) [epiandrostanediol]", "mitoOX": 0.190},
      {"smiles": "CC1(C)O[C@@H]2C[C@H]3[C@@H]4CCC5=CC(=O)CC[C@]5(C)[C@@]4(F)[C@@H](O)C[C@]3(C)[C@]2(C(=O)CCl)O1", "note": "[halcinonide]", "mitoOX": 0.831},
      {"smiles": "COc1cc2c(c(OC)c1OC)-c1ccc(=O)c(O)cc1[C@@H](NC(C)=O)CC2", "note": "[colchiceine]", "mitoOX": 1.192}
    ]},
    {"tested_on": "mtOXPHOS transcripts", "assay_type": "cell-based, mouse", "conditions": "composite Z-score vs mock-treated (DMSO) wells; Conc 20 μM", "values": [
      {"smiles": "COC(=O)c1cccc2cc(OC)c(OC)c(OC)c2c1=O", "mitoOX": 0.117}
    ]},
    {"tested_on": "cytochrome c", "assay_type": "cell-based, mouse", "conditions": "composite Z-score vs DMSO; Conc 10.62 μM", "values": [
      {"smiles": "CC(=O)[C@@]1(O)CC[C@H]2[C@@H]3C[C@H](C)C4=CC(=O)C=C[C@]4(C)[C@@]3(F)[C@@H](O)C[C@@]21C", "note": "[fluorometholone]", "cyt c": "−0.324"}
    ]},
    {"tested_on": "cytochrome c", "assay_type": "cell-based, mouse", "conditions": "composite Z-score vs DMSO; Conc 20 μM", "values": [
      {"smiles": "CC(C)C[C@H](NC(=O)CN)C(=O)N[C@@H](Cc1ccccc1)C(=O)O", "note": "[glycylleucylphenylalanine] (H-Gly-Leu-Phe-OH)", "cyt c": "−0.182"},
      {"smiles": "C[C@]12CCC3C(CC[C@H]4C[C@H](O)CC[C@]34C)C1CC[C@@H]2O", "note": "(stereo partly drawn) [epiandrostanediol]", "cyt c": "−0.201"},
      {"smiles": "CC1(C)O[C@@H]2C[C@H]3[C@@H]4CCC5=CC(=O)CC[C@]5(C)[C@@]4(F)[C@@H](O)C[C@]3(C)[C@]2(C(=O)CCl)O1", "note": "[halcinonide]", "cyt c": "−0.794"},
      {"smiles": "COc1cc2c(c(OC)c1OC)-c1ccc(=O)c(O)cc1[C@@H](NC(C)=O)CC2", "note": "[colchiceine]", "cyt c": "−0.908"}
    ]},
    {"tested_on": "cytochrome c", "assay_type": "cell-based, mouse", "conditions": "composite Z-score vs mock-treated (DMSO) wells; Conc 20 μM", "values": [
      {"smiles": "COC(=O)c1cccc2cc(OC)c(OC)c(OC)c2c1=O", "cyt c": "−0.229"}
    ]},
    {"tested_on": "C2C12 myotubes", "conditions": "composite Z-score vs DMSO; Conc 10.62 μM", "values": [
      {"smiles": "CC(=O)[C@@]1(O)CC[C@H]2[C@@H]3C[C@H](C)C4=CC(=O)C=C[C@]4(C)[C@@]3(F)[C@@H](O)C[C@@]21C", "note": "[fluorometholone]", "Viability": "−0.965"}
    ]},
    {"tested_on": "C2C12 myotubes", "conditions": "composite Z-score vs DMSO; Conc 20 μM", "values": [
      {"smiles": "CC(C)C[C@H](NC(=O)CN)C(=O)N[C@@H](Cc1ccccc1)C(=O)O", "note": "[glycylleucylphenylalanine] (H-Gly-Leu-Phe-OH)", "Viability": "−0.254"},
      {"smiles": "C[C@]12CCC3C(CC[C@H]4C[C@H](O)CC[C@]34C)C1CC[C@@H]2O", "note": "(stereo partly drawn) [epiandrostanediol]", "Viability": 1.143},
      {"smiles": "CC1(C)O[C@@H]2C[C@H]3[C@@H]4CCC5=CC(=O)CC[C@]5(C)[C@@]4(F)[C@@H](O)C[C@]3(C)[C@]2(C(=O)CCl)O1", "note": "[halcinonide]", "Viability": 0.106},
      {"smiles": "COc1cc2c(c(OC)c1OC)-c1ccc(=O)c(O)cc1[C@@H](NC(C)=O)CC2", "note": "[colchiceine]", "Viability": "−0.333"}
    ]},
    {"tested_on": "C2C12 myotubes", "conditions": "composite Z-score vs mock-treated (DMSO) wells; Conc 20 μM", "values": [
      {"smiles": "COC(=O)c1cccc2cc(OC)c(OC)c(OC)c2c1=O", "Viability": "−0.836"}
    ]},
    {"tested_on": "cellular dehydrogenase activity", "conditions": "composite Z-score vs DMSO; Conc 10.62 μM", "values": [
      {"smiles": "CC(=O)[C@@]1(O)CC[C@H]2[C@@H]3C[C@H](C)C4=CC(=O)C=C[C@]4(C)[C@@]3(F)[C@@H](O)C[C@@]21C", "note": "[fluorometholone]", "MTT": "−1.306"}
    ]},
    {"tested_on": "cellular dehydrogenase activity", "conditions": "composite Z-score vs DMSO; Conc 20 μM", "values": [
      {"smiles": "CC(C)C[C@H](NC(=O)CN)C(=O)N[C@@H](Cc1ccccc1)C(=O)O", "note": "[glycylleucylphenylalanine] (H-Gly-Leu-Phe-OH)", "MTT": "−0.344"},
      {"smiles": "C[C@]12CCC3C(CC[C@H]4C[C@H](O)CC[C@]34C)C1CC[C@@H]2O", "note": "(stereo partly drawn) [epiandrostanediol]", "MTT": "−0.207"},
      {"smiles": "CC1(C)O[C@@H]2C[C@H]3[C@@H]4CCC5=CC(=O)CC[C@]5(C)[C@@]4(F)[C@@H](O)C[C@]3(C)[C@]2(C(=O)CCl)O1", "note": "[halcinonide]", "MTT": "−0.789"},
      {"smiles": "COc1cc2c(c(OC)c1OC)-c1ccc(=O)c(O)cc1[C@@H](NC(C)=O)CC2", "note": "[colchiceine]", "MTT": "−3.186"}
    ]},
    {"tested_on": "cellular dehydrogenase activity", "conditions": "composite Z-score vs mock-treated (DMSO) wells; Conc 20 μM", "values": [
      {"smiles": "COC(=O)c1cccc2cc(OC)c(OC)c(OC)c2c1=O", "MTT": "−2.317"}
    ]}
  ]
}
